Experimental data from US9963446B2, “Oxepan-2-yl-pyrazol-4-yl-heterocyclyl-carboxamide compounds and methods of use” (Genentech, Inc., priority 2014, dated 2018).

Key:
PIM1 = PIM1 (Homo sapiens (Human), UniProt P11309); assay: Pim kinase binding activity (PIM1 LC3K Ki); type: biochemical; conditions: 20 pM PIM1, 10 μM ATP, 90 minutes
Experimental: PIM-1, -2, and -3 enzymes were generated as fusion proteins expressed in bacteria and purified by IMAC column chromatography (Sun, X., Chiu, J. F., and He, Q. Y. (2005) Expert Rev. Proteomics, 2:649-657). A fluorescent-labeled Pim-specific peptide substrate, was custom synthesized by American Peptide Company (Sunnyvale, Calif.). Reaction Buffer contained 10 mM HEPES, pH 7.2, 10 mM MgCl2, 0.01% Tween 20, 2 mM DTT. Termination Buffer contained 190 mM HEPES, pH 7.2, 0.015% Brij-35, 0.2% Coating Reagent 3 (Caliper Life Sciences, Hopkinton, Mass.), 20 mM EDTA. Separation Buffer contained 100 mM HEPES, pH 7.2, 0.015% Brij-35, 0.1% Coating Reagent 3, 1:200 Coating Reagent 8 (Caliper Life Sciences, Hopkinton, Mass.), 10 mM EDTA and 5% DMSO.
PIM reactions were carried out in a final volume of 10 μL per well in a 384-well plate. A standard enzymatic reaction, initiated by the addition of 5 μL 2×ATP and test compound to 5 μL of 2× enzyme and FAM-peptide, contained 20 pM PIM1, 50 pM PIM2, or 55 pM PIM3, 1 μM FAM-peptide, and 10 μM ATP, in Reaction Buffer. After 90 minutes of incubation at room temperature, the phosphorylation reaction was stopped by the addition of 10 μL Termination Buffer. The product and substrate in each independent reaction were separated on a 12-sipper microfluidic chip (Caliper Life Sciences, Hopkinton, Mass.) run on a Caliper LC3000® (Caliper Life Sciences, Hopkinton, Mass.). The separation of product and substrate was optimized by choosing voltages and pressure using Caliper's Optimizer software (Hopkinton, Mass.). The separation conditions used a downstream voltage of −500V, an upstream voltage of −2150V, and a screening pressure of −1.2 psi. The product and substrate fluorophore were excited at 488 nm and detected at 530 nm. Substrate conversion was calculated from the electropherogram using HTS Well Analyzer software (Caliper Life Sciences, Hopkinton, Mass.). Ki values for the test compound were calculated. See Table 1 for representative PIM1 LC3K Ki in micromolar values of exemplary compounds.

BaF3 parental cells = assay: In vitro cell proliferation, BaF3 parental line + IL3; type: cell-based, murine; conditions: Mus musculus; BaF3 parental line with mIL-3, incubated overnight; read-out: Prolif BaF3 + IL3 (IC50)
Experimental: (§1) BaF3 parental line was obtained from the DSMZ repository. BaF3 lines transfected with PIM1 or PIM2 were generated. Mouse IL-3 was purchased from R&D Systems. G418 was purchased from Clontech. Media for BaF3 parental line contained RPMI, 10% FBS, 2 mM L-Glutamine, 2 ng/mL mIL-3. Media for BaF3 PIM1 & 2 lines contained RPMI, 10% FBS, 2 mM L-Glutamine, […]. Media for MM1.S (multiple myeloma cells) line contained RPMI, 10% FBS, 2 mM L-Glutamine.
(§2) BaF3, a murine interleukin-3 dependent pro-B cell line, parental cells, BaF3 PIM1 cells, BaF3 PIM2 cells, and MM1.S (multiple myeloma) cells were seeded at 2 k/well, 5 k/well, 5 k/well, and 10 k/well respectively, in a 384-well plate, at 45 μL/well. Test compound was added at 5 μL/well. BaF3 cells (parental and transfected) were incubated overnight, while MM1.S cells were incubated for 72 hours at 37° C., 5% CO2. CELL TITER GLO® Reagent (Promega) was added at 50 μL/well, the plates were incubated for 30 minutes, and their luminescence read on an HT Analyst. IC50/EC50 values for the test compound were calculated.

BaF3 PIM1 cells = assay: In vitro cell proliferation, BaF3 transfected with PIM1; type: cell-based, murine; conditions: Mus musculus; BaF3 PIM1 line, incubated overnight; read-out: Prolif BaF3 PIM1 (IC50)
Experimental: as §1, §2

[1] = test system: MM1.S (multiple myeloma) cells; assay: In vitro cell proliferation, MM1.S (CELL TITER GLO); type: cell-based; conditions: Homo sapiens, 72 hours, read-out: Prolif MM1S ATP (EC50)
Experimental: as §1, §2

Sequence of PIM1 (P11309 whole entry, the tested form may be a part): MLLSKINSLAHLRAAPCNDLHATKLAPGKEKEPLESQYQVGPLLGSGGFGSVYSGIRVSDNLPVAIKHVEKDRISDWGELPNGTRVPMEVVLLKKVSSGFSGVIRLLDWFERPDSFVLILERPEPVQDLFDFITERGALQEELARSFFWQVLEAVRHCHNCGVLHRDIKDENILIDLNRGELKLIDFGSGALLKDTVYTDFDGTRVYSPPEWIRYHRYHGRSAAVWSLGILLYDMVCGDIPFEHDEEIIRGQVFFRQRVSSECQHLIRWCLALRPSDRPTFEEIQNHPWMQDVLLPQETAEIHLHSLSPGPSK

Row | SMILES | Ki (PIM1) [nM] | IC50 (BaF3 PIM1 cells) [nM] | EC50 [1] [nM] | IC50 (BaF3 parental cells) [nM]
1 | Cn1ncc(NC(=O)c2csc(-c3cnccn3)n2)c1[C@@H]1CC[C@@H](N)[C@H](F)CO1 [Example 105, N-[5-[(2S,5R,6S)-5-amino-6-fluoro-oxepan-2-yl]-1-methyl-pyrazol-4-yl]-2-pyrazin-2-yl-thiazole-4-carboxamide] | 0.095 | 142 | 473 | > 25000
2 | N[C@H]1CC[C@H](c2c(NC(=O)c3ccc(F)c(-c4c(F)cccc4F)n3)cnn2C2CC2)OC[C@@H]1F [Example 114, N-[5-[(2R,5S,6R)-5-amino-6-fluoro-oxepan-2-yl]-1-cyclopropyl-pyrazol-4-yl]-6-(2,6-difluorophenyl)-5-fluoro-pyridine-2-carboxamide] | 0.173 | 75.1 | 443 | 10100
3 | CO[C@H]1[C@H](N)CC[C@@H](c2c(NC(=O)c3csc(-c4c(F)cccc4F)n3)cnn2C)O[C@H]1C [Example 117, N-[5-[(2S,5R,6S,7S)-5-amino-6-methoxy-7-methyl-oxepan-2-yl]-1-methyl-pyrazol-4-yl]-2-(2,6-difluorophenyl)thiazole-4-carboxamide] | 0.0325 | 14 | 53.9 | 6900
4 | COc1cnc(-c2nc(C(=O)Nc3cnn(C)c3[C@@H]3CC[C@@H](N)[C@H](F)CO3)cs2)c(C)c1 [Example 119, N-[5-[(2S,5R,6S)-5-amino-6-fluoro-oxepan-2-yl]-1-methyl-pyrazol-4-yl]-2-(5-methoxy-3-methyl-2-pyridyl)thiazole-4-carboxamide] | 0.043 | 49.2 | 407 | 2900
5 | Cn1ncc(NC(=O)c2csc(-c3n[nH]c4c3CCC4)n2)c1[C@@H]1CC[C@@H](N)[C@H](F)CO1 [Example 113, N-[5-[(2S,5R,6S)-5-amino-6-fluoro-oxepan-2-yl]-1-methyl-pyrazol-4-yl]-2-(1,4,5,6-tetrahydrocyclopenta[c]pyrazol-3-yl)thiazole-4-carboxamide] | 0.03 | 327 | 906 | 13600

Continued, in another order:

Row | Ki (PIM1) [nM] | IC50 (BaF3 PIM1 cells) [nM] | EC50 [1] [nM] | SMILES | IC50 (BaF3 parental cells) [nM]
6 | 0.019 | 39.4 | 287 | Cn1ncc(NC(=O)c2csc(-c3cc4[nH]ncc4cc3F)n2)c1[C@@H]1CC[C@@H](N)[C@H](F)CO1 [Example 109, N-[5-[(2S,5R,6S)-5-amino-6-fluoro-oxepan-2-yl]-1-methyl-pyrazol-4-yl]-2-(5-fluoro-1H-indazol-6-yl)thiazole-4-carboxamide] | 3100
7 | 0.025 | 184 | 600 | Cn1ncc(NC(=O)c2csc(-c3cn4ccnc4cn3)n2)c1[C@@H]1CC[C@@H](N)[C@H](F)CO1 [Example 122, N-(5-((2S,5R,6S)-5-amino-6-fluorooxepan-2-yl)-1-methyl-1H-pyrazol-4-yl)-2-(imidazo[1,2-a]pyrazin-6-yl)thiazole-4-carboxamide] | 12500
8 | 0.1 | 264 | 5800 | CO[C@H]1[C@H](C)O[C@@H](c2c(NC(=O)c3csc(-c4c(F)cccc4F)n3)cnn2C)CC[C@@H]1N [Example 107, N-(5-((2R,5S,6R,7S)-5-amino-6-methoxy-7-methyloxepan-2-yl)-1-methyl-1H-pyrazol-4-yl)-2-(2,6-difluorophenyl)thiazole-4-carboxamide] | 20700
9 | 0.104 | 98.5 | 544 | Cn1ncc(NC(=O)c2csc(-c3ccc4c(c3)CCO4)n2)c1[C@@H]1CC[C@@H](N)[C@H](F)CO1 [Example 104, N-[5-[(2S,5R,6S)-5-amino-6-fluoro-oxepan-2-yl]-1-methyl-pyrazol-4-yl]-2-(2,3-dihydrobenzofuran-5-yl)thiazole-4-carboxamide] | 13200
